# According to patent US7553845B2, “Substituted indolizine 1,2,3,6,7,8 derivatives, FGFs inhibitors, a method for the preparation thereof and pharmaceutical compositions containing said derivatives” (sanofi-aventis, priority 2003, dated 2009):
# Where a name gives a salt, the structure may show the parent alone.
# What was measured:
# [1] = system: circulating platelet level; test: Effect on thrombopenia induced by carboplatin in mice; format: in vivo; conditions: carboplatin 150 mg/kg intraperitoneally, balbC mice, at nadir
# Source text: Thrombopenia remains a pathology for which there are few effective treatments apart from the transfusion of platelet concentrates and thrombopoietin (Kaushansky, K. New Eng J Med (1998), 339, pp 746-754).
# Anticancer chemotherapy constitutes one of the major causes of thrombopenia. One of the agents for chemotherapy, carboplatin, has been widely used to induce thrombopenia in mice and to thus be able to characterize the effect of compounds capable of improving the platelet level such as for example thrombopoietin (Hokom M M et al., Blood (1995), 86, pp 4486-4492).
# 150 mg/kg of carboplatin were administered intraperitoneally to balbC mice weighing 20 g. A blood sample was collected periodically by retro-orbital puncture and the circulating platelet level is determined by a haematology automated machine (MS9™ from Melet-Schloesing Laboratoires, Cergy-Pontoise, France). Under these conditions, a reversible thrombopenia is observed with a nadir situated 9 to 10 days after the administration of carboplatin (reduction in the circulating platelet level by 50-60%).
# The compounds according to the invention or their solvent (a blank—control) are administered orally for 5 days by starting the treatment 7 days before the administration of carboplatin. The experiments were carried out on groups comprising 10-12 mice and the results are expressed as a mean±standard error. […]
Structure (SMILES),melting point,reduction in the circulating platelet level [1]
COC(=O)c1ccc2c(OC)c(C)c(C(=O)c3ccc(N)c(OC)c3)n2c1,193 °C,–
COC(=O)c1c(C)c(C(=O)c2ccc([N+](=O)[O-])c(OC)c2)n2cc(OCc3ccccc3)ccc12,179 °C,–
COC(=O)c1c(C)c(C(=O)c2ccc([N+](=O)[O-])c(OC)c2)n2cccc(O)c12,150 °C,–
CNc1ccn2c(C(=O)c3ccc(N)c(OC)c3)c(C)c(C(=O)O)c2c1 (as salt: Na) (hydrate or solvate),209 to 219 °C,–
N.N.O=C([O-])C1(C(=O)[O-])CCC1.[Pt+2] [carboplatin],–,50-60%
COc1ccc(-c2c(C)c(C(=O)c3ccc([N+](=O)[O-])c(OC)c3)n3cc(C(N)=O)ccc23)cc1,267 °C,–
COC(=O)c1ccc2c(OC)c(C)c(C(=O)c3ccc([N+](=O)[O-])c(OC)c3)n2c1,211 °C,–

# The next lines start with results.
melting point,Structure (SMILES),reduction in the circulating platelet level [1]
318 °C,COc1ccc2c(OC)c(C)c(C(=O)c3ccc(N)c(C(=O)O)c3)n2c1 (as salt: Na) (hydrate or solvate),–
219 °C,COc1cc(C(=O)c2c(C)c(-c3cccs3)c3ccccn23)ccc1N (as salt: HCl) (hydrate or solvate),–
136 °C,CCOC(=O)COc1cccn2c(C(=O)c3ccc(N)c(OC)c3)c(C)c(C(=O)OC)c12,–
125 °C,COC(=O)c1c(C)c(C(=O)c2ccc([N+](=O)[O-])c(OC)c2)n2cccc(OCc3ccccc3)c12,–
222 to 227 °C,COc1cc(C(=O)c2c(C)c(C(=O)O)c3cc(N(C)C)ccn23)ccc1N (as salt: Na) (hydrate or solvate),–
162 °C,COC(=O)c1cc(C(=O)c2c(C)c(-c3cccs3)c3ccccn23)ccc1N,–
